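Protocol summary: plate cells (96-well), add compound at 5 concentrations, incubate 48 h, interpolate endpoints linearly. The concentration for 50% growth inhibition is given as GI50. TGI marks complete inhibition of growth.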

What all share (test): NCI tumour cell line growth inhibition, 48 h
Experiment [1] has as its system SK-OV-3 ovarian.
Experiment [2] deals with SN12C renal.
The test system of experiment [3] is MDA-MB-435.
The test system of experiment [4] is RXF 393 renal.
Experiment [5] deals with UO-31 renal.
Experiment [6] deals with RPMI-8226 leukemia.
Experiment [7] has as its system OVCAR-8 ovarian.
Experiment [8] relates to HT29 colon.
The test system of experiment [9] is HCC-2998 colon.
Experiment [10] deals with MCF7 breast.

`C/C([O-])=C1\Cc2ccccc2C1=O.C/C([O-])=C1\Cc2ccccc2C1=O.CC[O-].CC[O-].[Ti+4]`: the GI50 in experiment [1] was 20.3 µM; in [2], 21500 nM; in experiment [3], 17.6 µM; in experiment [4] it was 7300 nM; in experiment [5], 20200 nM; in experiment [6], 14.8 µM. In addition, the GI50 was 12.9 µM in experiment [7], 31.9 µM in experiment [8], 17.3 µM in experiment [9] and 22 µM in [10]. Further, the TGI was 81.7 µM in experiment [1]; > 81.6 µM in [2]; 43 µM in [3]; 21.9 µM in [4]; 70.6 µM in experiment [5]; 68.8 µM in experiment [6]. Moreover, the TGI in [7] is 50.4 µM; in experiment [8] it was > 100 µM; in experiment [9] it was 58.8 µM; in [10], > 100 µM.
As to `CC(C)[C@@]12C[C@@H](OC(=O)COC(=O)/C=C/c3ccccc3)[C@@](C)(O1)[C@@H]1CC[C@@H](C)[C@H]1[C@@H]2OC(=O)/C=C/c1ccccc1`, the GI50 in experiment [1] is > 100 µM; in [2] it was 1420 nM; in experiment [3], > 100 µM; in experiment [4], 618 nM; in [5], 65.6 nM; in [6], > 89.4 µM. Further, the GI50 in [7] is 0.173 µM; in [8], > 100 µM; in [9], > 100 µM; in [10] it was > 100 µM. The TGI in [1] was > 100 µM; in experiment [2], > 100 µM; in [3] it was > 100 µM; in [4] it was > 100 µM; in experiment [5] it was 0.216 µM; in experiment [6] it was > 100 µM. Moreover, the TGI in [7], in [8], in experiment [9] and in experiment [10] was > 100 µM in each case.
With `Cn1c(=O)c(Oc2ccc(F)cc2F)cc2cnc(NC(CO)CO)nc21`, the GI50 in [1] is > 25 µM; in [2], > 25000 nM; in experiment [3], > 25 µM; in experiment [4] it was > 25000 nM; in experiment [5], > 25000 nM; in [6] it was > 25 µM. For the same molecule, the GI50 in experiment [7], in experiment [8], in experiment [9] and in experiment [10] was > 25 µM throughout. Besides, the TGI in experiment [1], in experiment [2], in experiment [3], in [4], in experiment [5] and in experiment [6] was > 25 µM in each case. Moreover, the TGI in [7], in experiment [8], in [9] and in [10] was > 25 µM each time.
For `O=C1C=C[C@@]23C[C@@H](Nc4c(O)c5c6c(c42)=NCCC=6C=N5)SC3=C1`, the TGI is 32.8 µM in experiment [1]; 5.16 µM in experiment [2]; 2.98 µM in experiment [3]; 8.81 µM in experiment [4]; 22.8 µM in experiment [5]; > 34.6 µM in experiment [6]. Besides, the TGI in experiment [7] was found to be 3.66 µM; in experiment [8] it was 7.39 µM; in [9] it was 13.6 µM; in experiment [10], 4.04 µM. The GI50 in experiment [2] is 2360 nM; in experiment [4], 2510 nM; in [6], 3.13 µM; in experiment [7], 1.87 µM; in [9], 4.39 µM; in [10] it was 2 µM.
Turning to `O=C1Nc2ccccc2C1Cc1ccc([N+](=O)[O-])cc1` (stereo unspecified), the TGI in experiment [1], in experiment [2], in [3], in experiment [4], in experiment [5] and in [6] was > 100 µM in each case. For the same molecule, the TGI in [7], in experiment [8], in experiment [9] and in experiment [10] was > 100 µM each time.
As to `Cc1nc2cnc3cc(F)c(-c4ccc(Oc5ncccn5)cc4Cl)cc3c2n1[C@H]1CCN(C(=O)CO)C[C@@H]1F`, the GI50 was 3.93 µM in experiment [1]; 1200 nM in experiment [2]; 0.0692 µM in experiment [3]; 2020 nM in [4]; 1780 nM in experiment [5]; 1.35 µM in [6]. Moreover, the GI50 in experiment [7] is 7.35 µM; in [8], 0.0513 µM; in experiment [9] it was 0.261 µM; in experiment [10] it was 6.51 µM. In addition, the TGI in experiment [1] is > 100 µM; in experiment [2], 36.8 µM; in [3] it was > 60.7 µM; in [4] it was 10.9 µM; in [5] it was 24.4 µM; in experiment [6], 13.9 µM. The TGI in experiment [7] is > 100 µM; in [8], 16.9 µM; in experiment [9], 15.3 µM; in experiment [10] it was > 58.2 µM.
With `O=C(/C=C/c1cccs1)c1ccc(Nc2nc(Nc3ccc(F)cc3)nc(Nc3ccc(F)cc3)n2)cc1`, the GI50 was 56 µM in experiment [1]; > 100000 nM in experiment [2]; 24.5 µM in experiment [3]; 23300 nM in [4]; 19500 nM in [5]; 20.9 µM in experiment [6]. Also, the GI50 in experiment [7] is 21.7 µM; in experiment [8], 22.2 µM; in [9] it was 15.8 µM; in experiment [10], 14 µM. For the same molecule, the TGI in [1] is > 100 µM; in experiment [2] it was > 100 µM; in experiment [3], 67.6 µM; in experiment [4], 75.1 µM; in experiment [5] it was 79.7 µM; in [6], > 100 µM. Besides, the TGI in experiment [7] is 51.2 µM; in experiment [8] it was 70.5 µM; in experiment [9], > 100 µM; in experiment [10], 46.2 µM.
Consider `CCc1cccc2c3c(sc12)C(c1ccc(Cl)cc1)C(C#N)=C(N)O3` (stereo unspecified), for which the GI50 in [1] was 1.14 µM; in experiment [2] it was 805 nM; in experiment [3], 0.196 µM; in experiment [4] it was 258 nM; in experiment [5], 691 nM; in experiment [6], 0.442 µM. The GI50 in experiment [7] is 0.869 µM; in experiment [8], 0.457 µM; in experiment [9] it was 1.32 µM; in [10] it was 0.334 µM. Also, the TGI in experiment [1] is 29.8 µM; in experiment [2], 12.5 µM; in experiment [3], 0.463 µM; in experiment [4], 0.976 µM; in [5], 13.4 µM; in [6], 7.95 µM. Besides, the TGI in experiment [7] was 11 µM; in experiment [8], 3.61 µM; in experiment [9], 7.42 µM; in [10], 4.66 µM.
Regarding `Nc1ncnc2c1ncn2CC(O)C(=O)O` (stereo unspecified), the TGI in experiment [1], in experiment [2], in experiment [3], in experiment [4], in [5] and in experiment [6] was > 100 µM each time. For the same molecule, the TGI in experiment [7], in experiment [8], in [9] and in experiment [10] was > 100 µM in each case.
Turning to `Cn1ccnc1C(=O)/C=C/c1ccc(CC(=O)Nc2ccc(S(F)(F)(F)(F)F)cc2)cc1`, the GI50 was 3.86 µM in experiment [1]; 2930 nM in experiment [2]; 4.04 µM in experiment [3]; 2670 nM in experiment [4]; 2220 nM in experiment [5]; 0.517 µM in experiment [6]. For the same molecule, the GI50 was 4.94 µM in experiment [7], 3.25 µM in [8], 2.92 µM in experiment [9] and 0.625 µM in experiment [10]. The TGI in [1] worked out at 11.6 µM; in experiment [2] it was 7.17 µM; in experiment [3], 12.5 µM; in experiment [4], 5.21 µM; in [5], 4.35 µM; in experiment [6], 2.03 µM. The TGI was found to be 16.5 µM in [7], 7.2 µM in experiment [8], 5.3 µM in experiment [9] and 5.54 µM in experiment [10].

(Values after PubChem BioAssay (NCI).)
